Literature values as cited in patent US11890366B2, “Method for dyeing keratin material, comprising the use of an organic C1-C6 alkoxy silane and a copolymer of styrene and maleic acid (anhydride)” (Henkel AG & Co. KGaA, priority 2019, dated 2024).

Structure (SMILES)	solubility in water (25° C.)	also measured
Nc1cc(S(=O)(=O)[O-])cc2cc(S(=O)(=O)[O-])c(N=Nc3ccccc3)c(O)c12.[Na+].[Na+] [Acid Red 33, dinatrium salt of 5-amino-4-hydroxy-3-(phenylazo)-naphthalene-2,7-disulphonate]	2.5 mg/mL	–
CCN(Cc1cccc(S(=O)(=O)[O-])c1)c1ccc(C(=C2C=CC(=[N+](CC)Cc3cccc(S(=O)(=O)[O-])c3)C=C2)c2ccccc2S(=O)(=O)[O-])cc1.[Na+].[Na+] [Acid Blue 9]	–	water solubility (25° C.): greater than 20 % by weight
O=C([O-])C1=NN(c2ccc(S(=O)(=O)[O-])cc2)C(=O)C1N=Nc1ccc(S(=O)(=O)[O-])cc1.[Na+].[Na+].[Na+] (centres unmarked) [Acid Yellow 23, trisodium salt of 4,5-dihydro-5-oxo-1-(4-sulfophenyl)-4-((4-sulfophenyl)azo)-1H-pyrazole-3-carboxylic acid]	–	solubility in water (in words) (water at 25° C.): readily soluble
O=C([O-])c1c(Cl)c(Cl)c(Cl)c(Cl)c1-c1c2c(Br)cc(=O)c(Br)c-2oc2c(Br)c(O)cc(Br)c12.O=C([O-])c1c(Cl)c(Cl)c(Cl)c(Cl)c1-c1c2c(Br)cc(=O)c(Br)c-2oc2c(Br)c(O)cc(Br)c12.[Na+].[Na+] [Acid Red 92, disodium salt of 3,4,5,6-tetrachloro-2-(1,4,5,8-tetrabromo-6-hydroxy-3-oxoxanthen-9-yl)benzoic acid]	greater than 10 g/L	–
O=S(=O)([O-])c1ccc(N=Nc2c(O)ccc3ccccc23)cc1.[Na+] [Acid Orange 7, sodium salt of 4-[(2-hydroxy-1-naphthyl)azo]benzenesulfonate]	more than 7 g/L	–
